The CheMixHub ionic liquid set

Assay: xn = mol fraction of the nth substance listed

CCCCCCCC[n+]1ccccc1.[Br-] + CC(C)C[C@H](N)C(=O)O + O
100 kPa
Details | electrical conductivity [S/m]
288.15 K, x2 = 0.0008942, x1 = 0.006691 | 1.27
288.15 K, x2 = 0.0008943, x1 = 0.006585 | 1.26
288.15 K, x2 = 0.0008945, x1 = 0.006321 | 1.23
288.15 K, x2 = 0.0008948, x1 = 0.005952 | 1.19
288.15 K, x2 = 0.0008952, x1 = 0.005558 | 1.15
288.15 K, x2 = 0.0008956, x1 = 0.005126 | 1.11
288.15 K, x2 = 0.000896, x1 = 0.004648 | 1.05
288.15 K, x2 = 0.0008965, x1 = 0.00414 | 0.989
288.15 K, x2 = 0.000897, x1 = 0.003579 | 0.891
288.15 K, x2 = 0.0008975, x1 = 0.002951 | 0.778
288.15 K, x2 = 0.0008982, x1 = 0.002257 | 0.635
288.15 K, x2 = 0.0008986, x1 = 0.001784 | 0.529
288.15 K, x2 = 0.000899, x1 = 0.001328 | 0.417
288.15 K, x2 = 0.0008994, x1 = 0.0008528 | 0.298
288.15 K, x2 = 0.001786, x1 = 0.007009 | 1.29
288.15 K, x2 = 0.001787, x1 = 0.006296 | 1.21
288.15 K, x2 = 0.001787, x1 = 0.006626 | 1.25
288.15 K, x2 = 0.001788, x1 = 0.005936 | 1.17
288.15 K, x2 = 0.001789, x1 = 0.005553 | 1.12
288.15 K, x2 = 0.00179, x1 = 0.004654 | 1.02
288.15 K, x2 = 0.00179, x1 = 0.005124 | 1.08
288.15 K, x2 = 0.001791, x1 = 0.004138 | 0.963
288.15 K, x2 = 0.001792, x1 = 0.00359 | 0.869
288.15 K, x2 = 0.001793, x1 = 0.002944 | 0.753
288.15 K, x2 = 0.001795, x1 = 0.001946 | 0.545
288.15 K, x2 = 0.001795, x1 = 0.002309 | 0.625
288.15 K, x2 = 0.001796, x1 = 0.00149 | 0.443
288.15 K, x2 = 0.001797, x1 = 0.0009613 | 0.319
293.15 K, x2 = 0.0008942, x1 = 0.006678 | 1.44
293.15 K, x2 = 0.0008943, x1 = 0.006573 | 1.42
293.15 K, x2 = 0.0008945, x1 = 0.00631 | 1.39
293.15 K, x2 = 0.0008948, x1 = 0.005941 | 1.35
293.15 K, x2 = 0.0008952, x1 = 0.005547 | 1.3
293.15 K, x2 = 0.0008956, x1 = 0.005117 | 1.26
293.15 K, x2 = 0.000896, x1 = 0.004639 | 1.19
293.15 K, x2 = 0.0008965, x1 = 0.004133 | 1.12
293.15 K, x2 = 0.000897, x1 = 0.003572 | 1.01
293.15 K, x2 = 0.0008975, x1 = 0.002945 | 0.879
293.15 K, x2 = 0.0008982, x1 = 0.002253 | 0.718
293.15 K, x2 = 0.0008986, x1 = 0.001782 | 0.597
293.15 K, x2 = 0.000899, x1 = 0.001327 | 0.47
293.15 K, x2 = 0.0008994, x1 = 0.000851 | 0.333
293.15 K, x2 = 0.001786, x1 = 0.006996 | 1.47
293.15 K, x2 = 0.001787, x1 = 0.006286 | 1.38
293.15 K, x2 = 0.001787, x1 = 0.006613 | 1.43
293.15 K, x2 = 0.001788, x1 = 0.005926 | 1.33
293.15 K, x2 = 0.001789, x1 = 0.005542 | 1.28
293.15 K, x2 = 0.00179, x1 = 0.004645 | 1.16
293.15 K, x2 = 0.00179, x1 = 0.005113 | 1.23
293.15 K, x2 = 0.001791, x1 = 0.004131 | 1.09
293.15 K, x2 = 0.001792, x1 = 0.003584 | 0.986
293.15 K, x2 = 0.001793, x1 = 0.002938 | 0.852
293.15 K, x2 = 0.001795, x1 = 0.001937 | 0.616
293.15 K, x2 = 0.001795, x1 = 0.002304 | 0.706
293.15 K, x2 = 0.001796, x1 = 0.001487 | 0.497
293.15 K, x2 = 0.001797, x1 = 0.0009613 | 0.359
298.15 K, x2 = 0.0008942, x1 = 0.006669 | 1.62
298.15 K, x2 = 0.0008943, x1 = 0.006564 | 1.6
298.15 K, x2 = 0.0008945, x1 = 0.006301 | 1.57
298.15 K, x2 = 0.0008948, x1 = 0.005934 | 1.52
298.15 K, x2 = 0.0008952, x1 = 0.00554 | 1.47
298.15 K, x2 = 0.0008956, x1 = 0.00511 | 1.41
298.15 K, x2 = 0.000896, x1 = 0.004634 | 1.34
298.15 K, x2 = 0.0008965, x1 = 0.004127 | 1.25
298.15 K, x2 = 0.000897, x1 = 0.003568 | 1.13
298.15 K, x2 = 0.0008975, x1 = 0.002942 | 0.987
298.15 K, x2 = 0.0008982, x1 = 0.002249 | 0.803
298.15 K, x2 = 0.0008986, x1 = 0.00178 | 0.668
298.15 K, x2 = 0.000899, x1 = 0.001325 | 0.525
298.15 K, x2 = 0.0008994, x1 = 0.000851 | 0.369
298.15 K, x2 = 0.001786, x1 = 0.006987 | 1.66
298.15 K, x2 = 0.001787, x1 = 0.006277 | 1.56
298.15 K, x2 = 0.001787, x1 = 0.006604 | 1.61
298.15 K, x2 = 0.001788, x1 = 0.005918 | 1.51
298.15 K, x2 = 0.001789, x1 = 0.005535 | 1.45
298.15 K, x2 = 0.00179, x1 = 0.00464 | 1.31
298.15 K, x2 = 0.00179, x1 = 0.005107 | 1.38
298.15 K, x2 = 0.001791, x1 = 0.004127 | 1.23
298.15 K, x2 = 0.001792, x1 = 0.003579 | 1.11
298.15 K, x2 = 0.001793, x1 = 0.002934 | 0.956
298.15 K, x2 = 0.001795, x1 = 0.001935 | 0.69
298.15 K, x2 = 0.001795, x1 = 0.002302 | 0.791
298.15 K, x2 = 0.001796, x1 = 0.001485 | 0.558
298.15 K, x2 = 0.001797, x1 = 0.0009595 | 0.394
303.15 K, x2 = 0.0008942, x1 = 0.006659 | 1.8
303.15 K, x2 = 0.0008943, x1 = 0.006555 | 1.79
303.15 K, x2 = 0.0008945, x1 = 0.006292 | 1.76
303.15 K, x2 = 0.0008949, x1 = 0.005925 | 1.71
303.15 K, x2 = 0.0008952, x1 = 0.005533 | 1.65
303.15 K, x2 = 0.0008956, x1 = 0.005102 | 1.58
303.15 K, x2 = 0.000896, x1 = 0.004627 | 1.5
303.15 K, x2 = 0.0008965, x1 = 0.00412 | 1.4
303.15 K, x2 = 0.000897, x1 = 0.003563 | 1.26
303.15 K, x2 = 0.0008975, x1 = 0.002936 | 1.1
303.15 K, x2 = 0.0008982, x1 = 0.002246 | 0.893
303.15 K, x2 = 0.0008986, x1 = 0.001776 | 0.741
303.15 K, x2 = 0.000899, x1 = 0.001323 | 0.582
303.15 K, x2 = 0.0008994, x1 = 0.0008492 | 0.411
303.15 K, x2 = 0.001786, x1 = 0.006976 | 1.88
303.15 K, x2 = 0.001787, x1 = 0.006268 | 1.76
303.15 K, x2 = 0.001787, x1 = 0.006595 | 1.81
303.15 K, x2 = 0.001788, x1 = 0.005909 | 1.69
303.15 K, x2 = 0.001789, x1 = 0.005527 | 1.63
303.15 K, x2 = 0.00179, x1 = 0.004633 | 1.47
303.15 K, x2 = 0.00179, x1 = 0.0051 | 1.56
303.15 K, x2 = 0.001791, x1 = 0.00412 | 1.37
303.15 K, x2 = 0.001792, x1 = 0.003575 | 1.24
303.15 K, x2 = 0.001793, x1 = 0.002931 | 1.07
303.15 K, x2 = 0.001795, x1 = 0.001932 | 0.767
303.15 K, x2 = 0.001795, x1 = 0.002298 | 0.88
303.15 K, x2 = 0.001796, x1 = 0.001483 | 0.619
303.15 K, x2 = 0.001797, x1 = 0.0009576 | 0.441
308.15 K, x2 = 0.0008942, x1 = 0.00665 | 2.05
308.15 K, x2 = 0.0008943, x1 = 0.006544 | 2.03
308.15 K, x2 = 0.0008945, x1 = 0.006283 | 1.98
308.15 K, x2 = 0.0008949, x1 = 0.005916 | 1.91
308.15 K, x2 = 0.0008952, x1 = 0.005524 | 1.83
308.15 K, x2 = 0.0008956, x1 = 0.005093 | 1.76
308.15 K, x2 = 0.000896, x1 = 0.00462 | 1.66
308.15 K, x2 = 0.0008965, x1 = 0.004115 | 1.53
308.15 K, x2 = 0.000897, x1 = 0.003557 | 1.39
308.15 K, x2 = 0.0008975, x1 = 0.002933 | 1.2
308.15 K, x2 = 0.0008982, x1 = 0.002244 | 0.971
308.15 K, x2 = 0.0008986, x1 = 0.001775 | 0.809
308.15 K, x2 = 0.000899, x1 = 0.001321 | 0.643
308.15 K, x2 = 0.0008994, x1 = 0.0008474 | 0.461
308.15 K, x2 = 0.001786, x1 = 0.006965 | 2.11
308.15 K, x2 = 0.001787, x1 = 0.006586 | 2.04
308.15 K, x2 = 0.001788, x1 = 0.0059 | 1.9
308.15 K, x2 = 0.001788, x1 = 0.006259 | 1.97
308.15 K, x2 = 0.001789, x1 = 0.005518 | 1.82
308.15 K, x2 = 0.00179, x1 = 0.004626 | 1.64
308.15 K, x2 = 0.00179, x1 = 0.005091 | 1.73
308.15 K, x2 = 0.001791, x1 = 0.004114 | 1.51
308.15 K, x2 = 0.001792, x1 = 0.003568 | 1.37
308.15 K, x2 = 0.001793, x1 = 0.002925 | 1.17
308.15 K, x2 = 0.001795, x1 = 0.00193 | 0.836
308.15 K, x2 = 0.001795, x1 = 0.002295 | 0.962
308.15 K, x2 = 0.001796, x1 = 0.001481 | 0.683
308.15 K, x2 = 0.001797, x1 = 0.0009558 | 0.483

COC(=O)OC + CCCCCCCC[N+](C)(CCCCCCCC)CCCCCCCC.[Cl-]
101 kPa, x1 = 1
Details | electrical conductivity [S/m] | viscosity [mPa·s]
298.15 K | 5.2e-05 | 0.58
303.15 K | 5.5e-05 | –
308.15 K | 4.9e-05 | –
313.15 K | 5.5e-05 | 0.45
318.15 K | 5.2e-05 | 0.4
